Source: US5104980A, “Chromogenic dibenzoxazepinone and dibenzothiazepinone enzyme substrates” (Miles Inc., priority 1989, dated 1992)

Test system: β-galactosidase
Assay: cleavage of the chromogenic substrate by β-galactosidase in 50 mM phosphate buffer
Format: biochemical
Settings: 50 mM phosphate buffer at pH 7.4 containing 5 mM MgCl2; in the presence of β-galactosidase
Description: When dissolved in 50 mM phosphate buffer at pH 7.4 containing 5 mM magnesium chloride (MgCl2) compound (23)+(24) (mixture) had λmax of 454 nm (^ε =22,000) and 344 nm (^ε =14,000).

“8-β-D-Galactopyranosyloxy-11-methyl-11H-dibenz[b,e] [1,4]oxazepin-1-one (23) and 2-β-D-galactopyranosyloxy-11-methyl-11H-dibenz[b,e][1,4]oxazepin-8-one (24) [(23)+(24)]” was tested, and the Km was 75 µM and the “rate (Kcat) of cleavage of the substrate to (20)” value was 1.32×10^4 mol. min^-1 /mol. active site.
